Values after ≈ are worked out from the molar mass of the structure shown. Read-outs that look alike come from different tables or passages of the source.
Experiment: Solubility of Compound (V) in water and organic solvents
Format: physicochemical
Settings: for solubility: read-out: Concentration in pure solvents (solubility)
Procedure: Example 1 Solubility of Compound (V) in Organic Solvents
The solubility of Compound (V) in water and in a set of organic solvents was determined.

Solubility in words (acetonitrile): highly soluble
solubility (acetonitrile (pure solvent), organic solvent or mixture): > 200000 µg/mL
solubility (ethanol (pure solvent), organic solvent or mixture, EtOH): 10000 µg/mL (≈ 37.8 mM)
solubility (isopropanol (pure solvent), organic solvent or mixture, iPrOH): < 5000 µg/mL
solubility (methanol (pure solvent), organic solvent or mixture, MeOH): < 50000 µg/mL
solubility (water (pure solvent), water): < 5000 µg/mL
Structure (SMILES): CCOC(=O)c1cn([C@H]2COCC[C@@H]2C#N)nc1N (racemic) [Compound (V), ethyl 3-amino-1-[(3R,4S)-4-cyanotetrahydropyran-3-yl]pyrazole-4-carboxylate and ethyl 3-amino-1-[(3S,4R)-4-cyanotetrahydropyran-3-yl]pyrazole-4-carboxylate]

Source: patent publication US12281104B2, “Process for the production of ethyl 3-amino-1-[(3R,4S)-4-cyanotetrahydropyran-3-yl]pyrazole-4-carboxylate through chiral separation of a racemic mixture” (Intervet Inc., priority 2019, dated 2025)
